Results from EPA's ToxRefDB 2.

Legend:
primate [1] = settings: Sub-acute repeat dose toxicity, Oral, Gavage/Intubation, dose end: 30 day, group: systemic
primate [2] = settings: Sub-acute repeat dose toxicity; Oral; Gavage/Intubation; dose end: 9 day; group: systemic; systemic / clinical chemistry / [other] / [other] + systemic / clinical chemistry / alanine aminotransferase (alt/sgpt) / alanine …
primate [3] = settings: Sub-acute repeat dose toxicity; Oral; Gavage/Intubation; dose end: 5 day; group: systemic; systemic / clinical chemistry / bilirubin / total bilirubin + systemic / in life observation / clinical signs / abnormal feces + systemic / …
rat [4] = settings: Sub-acute repeat dose toxicity; sprague dawley; Oral; Gavage/Intubation; dose end: 28 day; group: systemic; systemic / in life observation / body weight / body weight + systemic / in life observation / clinical signs / feces, discoloration + …
rat [5] = settings: Sub-acute repeat dose toxicity; sprague dawley; Oral; Gavage/Intubation; dose end: 14 day; group: systemic; systemic / hematology / erythrocyte (rbc) count differential / erythrocyte (rbc) + systemic / hematology / fibrinogen / fibrinogen + …
dog [6] = settings: Chronic toxicity; beagle; Oral; Feed; dose end: 104 week; group: systemic; systemic / hematology / [other] / [other] + systemic / hematology / eosinophils / eosinophils + systemic / hematology / erythroblast / …
rat [7] = settings: Prenatal developmental toxicity study, wistar, Oral, Gavage/Intubation, dose end: 16 GD
dog [8] = settings: Subchronic oral toxicity in nonrodent, beagle, Feed, dose end: 90 day
rat [9] = settings: Multigenerational reproductive toxicity study, sprague dawley, Oral, Feed, dose end: 2 generation
rat [10] = settings: Combined chronic toxicity/carcinogenicity; fischer; Inhalation; Whole-Body; dose end: 103 week; group: systemic; systemic / pathology microscopic / larynx / metaplasia + systemic / pathology microscopic / nose / pigmentation + systemic / pathology …
rabbit = settings: Prenatal developmental toxicity study, new zealand white, Oral, Gavage/Intubation, dose end: 18 GD
rat [11] = settings: Subchronic inhalation toxicity, sprague dawley, Whole-Body, dose end: 13 week, group: systemic, systemic / hematology / erythrocyte (rbc) count differential / erythrocyte (rbc) + systemic / hematology / hemoglobin (hgb) / hemoglobin (…
mouse [12] = settings: Subchronic oral toxicity in rodents, b6c3f1, Gavage/Intubation, dose end: 13 week, group: systemic
rat [13] = settings: Subchronic oral toxicity in rodents, fischer, Gavage/Intubation, dose end: 13 week, group: systemic
mouse [14] = settings: Combined chronic toxicity/carcinogenicity, b6c3f1, Inhalation, Whole-Body, dose end: 103 week, group: systemic
[15] = systemic / in life observation / mortality / mortality + systemic / clinical chemistry / [other] / [other] + systemic / hematology / …
[16] = systemic / pathology gross / full gross necropsy / hemorrhage + systemic / pathology gross / full gross necropsy / lesion(s) (nos)
[17] = group: developmental, developmental / developmental malformation / bone / [other] + developmental / developmental malformation / bone / bipartite ossification + …
[18] = group: maternal, systemic / in life observation / body weight / body weight gain + systemic / in life observation / food consumption / food consumption
[19] = group: cholinesterase, cholinesterase / cholinesterase / cholinesterase / plasma cholinesterase (che) + cholinesterase / cholinesterase / cholinesterase / …
[20] = group: systemic, systemic / hematology / [other] / [other] + systemic / hematology / erythroblast / erythroblast + systemic / hematology / lymphocyte / …
[21] = group: offspring, systemic / in life observation / body weight / offspring (pup) weight
[22] = group: parental, systemic / in life observation / body weight / body weight gain + systemic / in life observation / food consumption / food consumption + …
[23] = group: developmental, developmental / developmental malformation / bone / malformation, total
[24] = group: maternal, systemic / in life observation / body weight / body weight gain + systemic / in life observation / clinical signs / defecation (diarrhea) + …
[25] = systemic / in life observation / body weight / body weight gain + systemic / in life observation / clinical signs / fur (altered appearance…
[26] = systemic / organ weight / kidney / relative to brain weight + systemic / organ weight / liver / relative to brain weight
[27] = systemic / pathology microscopic / nose / pigmentation + systemic / pathology microscopic / trachea / pigmentation

NC(=O)N1C(=O)C(C(=O)c2ccc(F)s2)c2cc(F)c(Cl)cc21 (stereo unspecified)
LOAEL (primate [1]; [15]): > 10 mg/kg/day
NOAEL (primate [1]; [15]): ≥ 10 mg/kg/day
LEL (primate [1]; [16]): 1 mg/kg/day
NEL (primate [1]; [16]): < 1 mg/kg/day
LEL (primate [2]): 2 mg/kg/day
LOAEL (primate [2]): > 20 mg/kg/day
NEL (primate [2]): < 2 mg/kg/day
NOAEL (primate [2]): ≥ 20 mg/kg/day
LEL (primate [3]): 30 mg/kg/day
LOAEL (primate [3]): > 30 mg/kg/day
NEL (primate [3]): < 30 mg/kg/day
NOAEL (primate [3]): ≥ 30 mg/kg/day
LEL (rat [4]): 3 mg/kg/day
LOAEL (rat [4]): > 20 mg/kg/day
NEL (rat [4]): < 3 mg/kg/day
NOAEL (rat [4]): ≥ 20 mg/kg/day
LEL (rat [5]): 30 mg/kg/day
LOAEL (rat [5]): > 30 mg/kg/day
NEL (rat [5]): 10 mg/kg/day
NOAEL (rat [5]): ≥ 30 mg/kg/day

Cc1nc(N(C)C)nc(OC(=O)N(C)C)c1C [Pirimicarb]
LEL (dog [6]): 4 mg/kg/day
LOAEL (dog [6]): 4 mg/kg/day
NEL (dog [6]): 1.8 mg/kg/day
NOAEL (dog [6]): 1.8 mg/kg/day
LEL (rat [7]; [17]): 75 mg/kg/day
LOAEL (rat [7]; [17]): 75 mg/kg/day
NEL (rat [7]; [17]): 25 mg/kg/day
NOAEL (rat [7]; [17]): 25 mg/kg/day
LEL (rat [7]; [18]): 75 mg/kg/day
LOAEL (rat [7]; [18]): 75 mg/kg/day
NEL (rat [7]; [18]): 25 mg/kg/day
NOAEL (rat [7]; [18]): 25 mg/kg/day
LEL (dog [8]; [19]): 10 mg/kg/day
LOAEL (dog [8]; [19]): 10 mg/kg/day
NEL (dog [8]; [19]): 4 mg/kg/day
NOAEL (dog [8]; [19]): 4 mg/kg/day
LEL (dog [8]; [20]): 4 mg/kg/day
LOAEL (dog [8]; [20]): 4 mg/kg/day
NEL (dog [8]; [20]): 1.8 mg/kg/day
NOAEL (dog [8]; [20]): 1.8 mg/kg/day
LEL (rat [9]; [21]): 90.1 mg/kg/day
LOAEL (rat [9]; [21]): 90.1 mg/kg/day
NEL (rat [9]; [21]): 23.2 mg/kg/day
NOAEL (rat [9]; [21]): 23.2 mg/kg/day
LEL (rat [9]; [22]): 81.8 mg/kg/day
LOAEL (rat [9]; [22]): 81.8 mg/kg/day
NEL (rat [9]; [22]): 21.7 mg/kg/day
NOAEL (rat [9]; [22]): 21.7 mg/kg/day

ClC1=C(Cl)C(Cl)(Cl)C(Cl)=C1Cl [Hexachlorocyclopentadiene]
LEL (rat [10]): 0.01 ppm
LOAEL (rat [10]): > 0.2 ppm
NEL (rat [10]): < 0.01 ppm
NOAEL (rat [10]): ≥ 0.2 ppm
LEL (rabbit; [23]): 75 mg/kg/day
LOAEL (rabbit; [23]): > 75 mg/kg/day
NEL (rabbit; [23]): 25 mg/kg/day
NOAEL (rabbit; [23]): ≥ 75 mg/kg/day
LEL (rabbit; [24]): 75 mg/kg/day
LOAEL (rabbit; [24]): 75 mg/kg/day
NEL (rabbit; [24]): 25 mg/kg/day
NOAEL (rabbit; [24]): 25 mg/kg/day
LEL (rat [11]): 0.01 ppm
LOAEL (rat [11]): > 0.2 ppm
NEL (rat [11]): < 0.01 ppm
NOAEL (rat [11]): ≥ 0.2 ppm
LOAEL (mouse [12]; [25]): > 300 mg/kg/day
NOAEL (mouse [12]; [25]): ≥ 300 mg/kg/day
LEL (mouse [12]; [26]): 19 mg/kg/day
NEL (mouse [12]; [26]): < 19 mg/kg/day
LOAEL (rat [13]; [25]): > 150 mg/kg/day
NEL (rat [13]; [25]): 10 mg/kg/day
NOAEL (rat [13]; [25]): ≥ 150 mg/kg/day
LEL (rat [13]; systemic / pathology microscopic / stomach / hyperplasia + systemic / pathology microscopic / stomach / inflammation): 19 mg/kg/day
LOAEL (mouse [14]; systemic / in life observation / body weight / body weight + systemic / pathology microscopic / nose / inflammation): 0.2 ppm
NOAEL (mouse [14]; systemic / in life observation / body weight / body weight + systemic / pathology microscopic / nose / inflammation + systemic / pathology …): 0.05 ppm
LEL (mouse [14]; [27]): 0.01 ppm
NEL (mouse [14]; [27]): < 0.01 ppm
